Assay results published in ChEMBL document CHEMBL1129467, “Synthesis and HIV inhibition activity of 2',3'-dideoxy-3'-C-hydroxymethyl nucleosides” (1996).
Where “and” joins values, the source holds several entries; their conditions need not be identical. Equal entries are not always repeated.

How the values were obtained:
Assay type in all cases: functional, Homo sapiens
H9 [1] = experiment: Compound was tested for the cytotoxicity in H-9 cells infected with HIV-IIIB over 7 days
H9 [2] = experiment: Compound was tested for the cytotoxicity in H-9 cells infected with HIV-IIIB over 9 days
H9 [3] = experiment: Compound was tested for the cytotoxicity in H-9 cells infected with HIV-IIIB over 14 days
H9 [4] = experiment: Compound was tested for the inhibiting acute infection of H9 cells over 7 days at 1 mM
H9 [5] = experiment: (§1) Compound was tested for the inhibiting acute infection of H9 cells over 7 days at 50 mM
H9 [6] = experiment: Compound was tested for the inhibiting acute infection of H9 cells over 14 days 1 mM
H9 [7] = experiment: as §1; remark: listed apart in the source
H9 [8] = experiment: Compound was tested for the effective inhibiting acute infection of H9 cells over 7 days at 50 mM
H9 [9] = experiment: Compound was tested for the effective inhibiting acute infection of H9 cells over 7 days at 100 mM
H9 [10] = experiment: Compound was Tested for the inhibiting acute infection of H9 cells over 7 days at 1 mM

Cc1cn([C@H]2C[C@H](N=[N+]=[N-])[C@@H](CO)O2)c(=O)[nH]c1=O [ZIDOVUDINE]
P24 concentration (H9 [1]): 100 ng/mL | P24 concentration (H9 [2]): 600 ng/mL

COc1ncnc2c1ncn2[C@@H]1C[C@H](CO)[C@@H](CO)O1
P24 concentration (H9 [1]): 5 ng/mL | P24 concentration (H9 [3]): 80 ng/mL

OC[C@H]1C[C@H](n2cnc3c(Cl)ncnc32)O[C@@H]1CO
P24 concentration (H9 [1]): 2 ng/mL | P24 concentration (H9 [3]): 80 ng/mL

OC[C@H]1C[C@H](n2cnc3cncnc32)O[C@@H]1CO
P24 concentration (H9 [1]): 8 ng/mL | P24 concentration (H9 [3]): 80 ng/mL

COc1ncnc2c1ncn2[C@H]1C[C@H](CO)[C@@H](CO)O1
P24 concentration (H9 [1]): 12 ng/mL | P24 concentration (H9 [4]): 80 ng/mL | P24 concentration (H9 [3]): 6 ng/mL

Nc1ncnc2c1ncn2[C@@H]1C[C@H](CO)[C@@H](CO)O1
P24 concentration (H9 [1]): 10 ng/mL | P24 concentration (H9 [3]): 80 ng/mL

OC[C@H]1C[C@@H](n2cnc3cncnc32)O[C@@H]1CO
P24 concentration (H9 [1]): 12 ng/mL | P24 concentration (H9 [4]): 6 ng/mL | P24 concentration (H9 [3]): 80 ng/mL | P24 concentration (H9 [5]): 90 ng/mL | P24 concentration (H9 [6]): 90 ng/mL | P24 concentration (H9 [7]): 14 ng/mL

CCCCCCOc1ncnc2c1ncn2[C@H]1C[C@H](CO)[C@@H](CO)O1
P24 concentration (H9 [1]): 1 ng/mL | P24 concentration (H9 [4]): 2 ng/mL | P24 concentration (H9 [3]): 80 ng/mL | P24 concentration (H9 [5]): 1 ng/mL and 3 ng/mL | P24 concentration (H9 [6]): 90 ng/mL

Nc1ncnc2c1ncn2[C@H]1C[C@H](CO)[C@@H](CO)O1
P24 concentration (H9 [1]): 0.5 ng/mL | P24 concentration (H9 [8]): 100 ng/mL | P24 concentration (H9 [3]): 2 ng/mL | P24 concentration (H9 [5]): 0.5 ng/mL and 1 ng/mL | P24 concentration (H9 [9]): 0.1 ng/mL | P24 concentration (H9 [6]): 90 ng/mL | P24 concentration (H9 [10]): 6 ng/mL

CCCCCCOc1ncnc2c1ncn2[C@@H]1C[C@H](CO)[C@@H](CO)O1
P24 concentration (H9 [1]): 4 ng/mL | P24 concentration (H9 [3]): 80 ng/mL

OC[C@H]1C[C@@H](n2cnc3c(Cl)ncnc32)O[C@@H]1CO
P24 concentration (H9 [1]): 2 ng/mL | P24 concentration (H9 [3]): 80 ng/mL
